Reference: patent US10774049B2, “PU.1 inhibitors” (Albert Einstein College of Medicine, priority 2016, dated 2020)
Counter-ions that a name gives are not always drawn. Like-named read-outs stand apart in the source and are kept apart here.

Legend:
PU.1 URE−/− AML cells = test: Apoptosis (Annexin-V+Dapi−) in PU.1 URE−/− AML cells; assay type: cell-based; settings: murine PU.1 URE−/− AML cells, 48 h, vs vehicle
Method: (§1) FIG. 2A-2F. PU.1 inhibition decreases cell growth and increases apoptosis of PU.1^1″ leukemic cells. (A) Chemical structures of heterocyclic diamidines DB1976, DB2115 and DB2313 used in this study. (B) Relative cell viability of URE−/− cells and BAF3 cells after treatment with increasing concentrations of vehicle or small molecules. Cell viability was assessed after 48 h. Data represent means of technical triplicate from one representative experiment; fold change compared to Vehicle is shown. (C) Cell proliferation assay of URE−/− after treatment with DB1976 (n=5), DB2115 (n=3), DB2313 (n=3), of MOLM13 cells (n=3), and THP1 cells (n=3). Cell counting was performed every 24 h during 4 days. Data represent means±SD of technical triplicate from one representative experiment. Forward strand: SEQ ID NO:3, and Reverse strand: SEQ ID NO:4; derived from the λB motif from the murine Ig lambda 2-4 enhancer, a known native PU.1-dependent gene and specific binding site for PU.1. (D) Clonogenic capacities of URE−/− cells after treatment with DB1976 (n=5), DB2115 (n=3) and DB2313 (n=4) in the first plating, and after serial replatings (n=3). Data represent means±SD of technical triplicate from one representative experiment. (E) Apoptotic cells (Annexin-V+Dapi−) fraction in URE−/− cells after 48 h of treatment with DB1976 (n=6), DB2115 (n=6) and DB2313 (n=3). Data represent the means±SD of independent experiments; fold change compared to Vehicle is shown. *P<0.05, **P<0.01, ***P<0.001, ****P<0.0001 (F) Dose dependent inhibitor of PU.1-dependent transactivation.
To determine if our PU.1 inhibitors have an effect on PU.1^low-induced AML cells, we treated the PU.1 URE^−/− AML cell line with compounds at different concentrations. Treatment with the drugs led to a profound decrease in growth of PU.1 URE^−/− AML cells after 48 h whereas it had only minimal or no effects on control cells with normal PU.1 levels (BaF3), even at very high doses (FIG. 3A). […]

[1] = system: PU.1 occupancy on E2f1, Junb and Csf1r promoters; test: Chromatin immunoprecipitation of PU.1 on target promoters in AML cells; assay type: cell-based; settings: ChIP
Method: FIG. 3A-3G. Novel inhibitors show on-target PU.1 inhibitory activity. (A) Quantitative RT-PCR analysis of Csf1r, Junb, Sfpi1, E2f1 expression after 72 h (n=6) and, for Csf1r, after 1 h (n=3), 4 h (n=7), 8 h (n=3) and 24 h (n=3) of treatment with the small molecules in URE−/− cells, expression is normalized to GAPDH expression. Data represent means±SD of technical triplicate from one representative experiment; fold change compared to Vehicle is shown. (B) Chromatin immunoprecipitation assay showing PU.1 occupancy on E2f1, Junb, Csf1r promoters after treatment in Umsh cell line (n=5). 10·10^6 cells were collected for each condition after 8 h treatment with a double dose of the small molecules (50 uM for DB1976, 1.4 uM for DB2115 and 660 nM for DB2313) or Vehicle; and processed for ChIP using PU.1 monoclonal antibody. Myogenin was used as a negative control, not regulated by PU.1. Data represent means±SD of technical triplicate from one representative experiment. (C) Cell viability after PU.1 rescue in MOLM13 cells. MOLM13 were transduced with a lentiviral construct expressing either PU.1-GFP (PU.1, black bar) or GFP as a control (empty, white bar), sorted on GFP and plated with DB1976 (n=7), DB2115 (n=8), DB2313 (n=6) or Vehicle. Cell count was performed after 4 days. Data represent means±SD of technical triplicate from one representative experiment; fold change compared to Vehicle is shown. (D-G) Transcriptome analysis of URE−/− cells after 24 h of treatment with DB2313 versus vehicle (n=3). Differentially expressed genes were determined with a fold change at 1.2 and a P value <0.1. […] Deregulated gens in PUER cells were analyzed with a FC at 1.5 and P-value <0.05. […] P-value was calculated using the hypergeometric test. […]
(§2) To assess on-target activity of our inhibitors in AML cells, we measured transcript levels of well-known PU.1 targets in PU.1 URE^−/− AML cells. […] As Csf1r is one of the most sensitive PU.1 targets in myeloid cells, we assessed its expression at different time points (1 h, 4 h, 8 h and 24 h) after drug treatment. […]

[2] = system: PU.1 URE−/− AML cell line; test: Cell viability/growth of PU.1 URE−/− AML cells; assay type: cell-based, murine; settings: Mus musculus
Method: as §1
To determine if our PU.1 inhibitors have an effect on PU.1^low-induced AML cells, we treated the PU.1 URE^−/− AML cell line with compounds at different concentrations. Treatment with the drugs led to a profound decrease in growth of PU.1 URE^−/− AML cells after 48 h whereas it had only minimal or no effects on control cells with normal PU.1 levels (BaF3), even at very high doses (FIG. 3A). […] Similar to our observations with PU.1-directed shRNAs, treatment with pharmacological PU.1 inhibitors led to a significant 1.6-, 2- and 3.5-fold increase of apoptotic cells with DB1976, DB2115 and DB2313, respectively, in murine PU.1 URE^−/− AML cells (FIG. 3C), and similar effects in human MOLM13 cells.

[3] = system: PU.1 targets Csf1r, Junb, PU.1, E2f1; test: Quantitative RT-PCR of PU.1 target transcripts in PU.1 URE−/− AML cells; assay type: cell-based, murine
Method: FIG. 3A-3G. Novel inhibitors show on-target PU.1 inhibitory activity. (A) Quantitative RT-PCR analysis of Csf1r, Junb, Sfpi1, E2f1 expression after 72 h (n=6) and, for Csf1r, after 1 h (n=3), 4 h (n=7), 8 h (n=3) and 24 h (n=3) of treatment with the small molecules in URE−/− cells, expression is normalized to GAPDH expression. Data represent means±SD of technical triplicate from one representative experiment; fold change compared to Vehicle is shown. (B) Chromatin immunoprecipitation assay showing PU.1 occupancy on E2f1, Junb, Csf1r promoters after treatment in Umsh cell line (n=5). 10·10^6 cells were collected for each condition after 8 h treatment with a double dose of the small molecules (50 uM for DB1976, 1.4 uM for DB2115 and 660 nM for DB2313) or Vehicle; and processed for ChIP using PU.1 monoclonal antibody. Myogenin was used as a negative control, not regulated by PU.1. Data represent means±SD of technical triplicate from one representative experiment. (C) Cell viability after PU.1 rescue in MOLM13 cells. MOLM13 were transduced with a lentiviral construct expressing either PU.1-GFP (PU.1, black bar) or GFP as a control (empty, white bar), sorted on GFP and plated with DB1976 (n=7), DB2115 (n=8), DB2313 (n=6) or Vehicle. Cell count was performed after 4 days. Data represent means±SD of technical triplicate from one representative experiment; fold change compared to Vehicle is shown. (D-G) Transcriptome analysis of URE−/− cells after 24 h of treatment with DB2313 versus vehicle (n=3). Differentially expressed genes were determined with a fold change at 1.2 and a P value <0.1. (D) Enrichment in genes directly regulated by PU.1 or in genes regulated by the other ETS transcription factors Ets1, Gabpa, Spi-B, Fli-1, using Ingenuity Knowledge Base. The red dotted line represents the significance threshold (−log (P value)>1.3). (E,F) Comparison analysis of deregulated genes in URE−/− cells after DB2313 treatment and in PUER cells after PU.1 induction (GSE13125). Deregulated gens in PUER cells were analyzed with a FC at 1.5 and P-value <0.05. (E) Significant overlap between the 2 datasets, with 484 genes commonly deregulated. P-value was calculated using the hypergeometric test. (F) Comparative analysis of deregulated canonical pathways between the 2 datasets (z-score >2 for PUER dataset). Colored squares indicate activation z-score. (G) Enrichment of PU.1 binding at promoters of all, up- and down-deregulated genes after DB2313 treatment. […]
as §2

[4] = after 48 h, read-out: IC50 in PU.1 URE−/− AML

| SMILES | fold increase of apoptotic cells (PU.1 URE−/− AML cells) [fold] | PU.1 occupancy on E2f1, Junb and Csf1r promoters [1] | IC50 [2, 4] [nM] | Csf1r, Junb, and PU.1 transcript expression [3] | E2f1 expression [3] | IC50 ([2]; read-out: IC50 URE−/−) [nM] |
| --- | --- | --- | --- | --- | --- | --- |
| N=C(N)c1ccc2nc(-c3ccc(-c4nc5ccc(C(=N)N)cc5[nH]4)[se]3)[nH]c2c1 [DB1976] | 1.6 | decreased | 25000 |  |  |  |
| N=C(N)c1ccc2nc(-c3ccc(OCCCCOc4ccc(-c5nc6ccc(C(=N)N)cc6[nH]5)cc4)cc3)[nH]c2c1 [DB2115] | 2 | decreased | 700 | decrease | increase |  |
| CC(C)NC(=N)c1ccc2nc(-c3ccc(OCc4cccc(COc5ccc(-c6nc7ccc(C(=N)NC(C)C)cc7[nH]6)cc5)c4F)cc3)[nH]c2c1 [DB2313, 3-Bis{4[4(5)-N-isopropylamidinobenzimidazolyl]phenoxymethyl]}-2-fluorobenzene tetrahydrochloride] | 3.5 | decreased | 330 | decrease | increase | 330 |
